Patent US8697731B2, “Derivatives of 2-pyridin-2-yl-pyrazol-3(2H)-one, preparation and therapeutic use thereof” (Sanofi, priority 2008, dated 2014)

Experiments:
EPO = test: Measurement of the secretion of EPO by Hep3B hepatocytes (ELISA); type: cell-based; conditions: Homo sapiens, supernatant of Hep3B cells, 18 hours under normoxia, concentration that produces 50% of the maximum response of this same compound
Method: (§1) The test is an ELISA test for measuring VEGF and EPO in the supernatant of Hep3B cells treated under hypoxia or with deferoxamine as controls or with the potential HIF activators. The test was adapted to a 96-well plate, allowing greater compound screening capacity.
(§2) 2.3.1 Experiment Plan • 1) Inoculation of the cells on D0 • 2) Adherence for 6 hours under normoxia • 3) Preparation and addition of the products (Biomek 2000 and FX) • 4) Incubation under normoxia for 18 hours • 5) EPO and VEGF assay in the supernatant on D+1
(§3) The cells are subcultured into 100 μl of culture medium (10% FCS) in black, opaque-bottomed 96-well plates (reference Costar 3916) at 30000 cells/well, with Multidrop.
(§4) The test products are prepared at 10^−2M in 100% DMSO and then diluted to […] in medium containing 0.1% FCS (6 μl in 194 μl of MEM). 200 μl of each compound are deposited in column 12 of a 96-well plate. Dilution ranges from 3×10^−4M to 3×10^−8M are prepared with Biomek 2000 (programme: range of 9 points in series). 100 μl of MEM 0.1% FCS and Deferoxamine 5×10^−3M are added as controls to column 3 and, respectively, to wells A,B,C,D & wells E,F,G,H
(§5) The medium of the cells inoculated the day before into 96-well plates is changed for 90 μl of medium containing 0.1% FCS and 10 μl are distributed with FX 96 from the 96-well DL plates to the cell plates.
(§6) The cell plates thus treated are placed for 18 hours in an incubator at 37° C. (ambient O2, 6% CO2).
(§7) The supernatants (80 μl) of the Hep3B cells in the 96-well plates treated with the potential HIF activators are recovered with a multichannel pipette for simultaneous assay of the VEGF and the EPO by ELISA according to the supplier's instructions (Kit EPO Mesoscale (ref K15122B-2)).
(§8) The activating activity of a compound with respect to HIF is given by the concentration that produces 50% of the maximum response of this same compound in Table IV.

VEGF = test: Measurement of the secretion of VEGF by Hep3B hepatocytes (ELISA); type: cell-based; conditions: Homo sapiens, supernatant of Hep3B cells, 18 hours under normoxia, concentration that produces 50% of the maximum response of this same compound
Method: as §1, §2, §3, §4, §5, §6, §7, §8

HIF1-alpha = test: Measurement of the stabilization of HIF1-alpha in HEKEA cells (beta-galactosidase complementation); type: cell-based, human; conditions: HEKEA_HIF1-alphaPLBL cells, 6 hours under normoxia, luminescence; molar concentration that produces 50% of the maximum response of this same compound
Excerpt: Furthermore, a subject of the invention is also a uniform test for the direct measurement by beta-galactosidase complementation of the amount of HIF1-alpha protein in the nucleus of cells, preferably HEK cells, after treating the said cells with one or more test compounds, which consists in: • (a) inoculating, preferably in 384-well plates, the said cells in a suitable culture medium, preferably 1% foetal calf serum (abbreviated as FCS); • (b) adding the test compound(s) at a suitable concentration in a suitable solvent to the cells previously inoculated in the said culture medium; preferably the test compounds are diluted in 0.1% FCS; • (c) incubating the said cells thus prepared in an indicator at about 37° C., advantageously for about 6 hours; • (d) lysing the cells with a lysis buffer containing a chemiluminescent substrate for beta-galactosidase; • (e) incubating in the absence of light, before reading and measuring the luminescence, which is a function of the beta-galactosidase activity.
The test is a cell test based on the principle of enzyme complementation, the enzyme used herein being beta-galactosidase. HEKEA cells are HEK cells stably expressing, and restricted in their nucleus, mutant beta-galactosidase (omega fragment, also known as EA) (line sold by DiscoverX). This construct makes it possible to obtain beta-galactosidase activity only when the protein comprising the Prolabel complementation fragment has migrated into the nucleus.
The protein of interest comprising the Prolabel fragment is in this case an HIF1-alpha or HIF1-alpha mutated at the two prolines 402 and 564 replaced with alanines, is C-terminal fused via molecular biology (DiscoverX vector sold by Clontech) with the small complementation peptide fragment (Prolabel or ED, about 4 kDa). The vector coding for the chimeric protein HIF1-alpha_Prolabel is then transfected into HEKEA cells to obtain stable clones (HEKEA_HIF1-alphaPLBL).
The amount of C-terminal Prolabel-“labelled” HIF1-alpha protein obtained after treating the cells to hypoxia or compounds that are potentially HIF activators is measured by adding to the cells a lysis buffer containing a chemiluminescent substrate for beta-galactosidase.
The measurement of the beta-galactosidase activity will be proportional to the amount of Prolabel and thus of HIF1-alpha that has migrated into the nucleus of the cells.
1.3.1 Experiment Plan • 1) Inoculation of the cells on D0 • 2) Adherence for 24 hours under normoxia • 3) Preparation and addition of the products (Biomek 2000 and FX) on D+1 • 4) Incubation under normoxia for 6 hours • 5) Reading of the plates (by luminescence)
The cells are inoculated with Multidrop in white, opaque-bottomed 384-well plates (Greiner ref 3704), in 30 μl of culture medium (1% FCS) a 10000 cells/well (cell plate).
The test products are prepared at 3×10^−2 M in 100% DMSO and then diluted to 3×10^−4 M in medium containing 0.1% FCS (10 μl in 990 μl of MEM). They are then deposited by hand into column 12 of a round-bottomed 96-well plate (200 μl of each compound) known as the dilution plate (dl). The complete DL plate of 3×10^−4 M to 10^−9 M is then prepared with Biomek 2000 (programme: range of 10 points in series). For the references and controls, 100 μl of DMEM containing 0.1% FCS are added to column 1, 100 μl of Deferoxamine 10^−3M to column 2, wells A B C D and 100 μl of Deferoxamine 5×10^−3 M to column 2, wells E F G H.
3.3 μL are taken from the DL plate by pipetting with a Biomek FX 96 and placed in horizontal duplicate (columns 1 to 24) in each 384-well cell plate (HEKEA_HIF1-alphaPLBL cell plate).
The cells are then placed for 6 hours in an incubator at 37° C. (ambient O2, 6% CO2).
The kit used is the Prolabel chemiluminescent kit (Ref 93-0001 DiscoverX). […]

Compound	melting point [°C]	EC50 (HIF1-alpha) [nM]	EC50 (EPO) [nM]	EC50 (VEGF) [nM]
CC(C)NS(=O)(=O)c1ccc(-n2[nH]c3c(c2=O)CSC3)nc1 [Compound 17, 6-(3-oxo-4,6-dihydro-1H-thieno[3,4-c]pyrazol-2(3H)-yl)-N-(propan-2-yl)pyridine-3-sulfonamide]	258	10000	2900	2900
CC(C)(C)NS(=O)(=O)c1ccc(-n2[nH]c3c(c2=O)CSC3)nc1 [Compound 18, N-tert-butyl-6-(3-oxo-4,6-dihydro-1H-thieno[3,4-c]pyrazol-2(3H)-yl)pyridine-3-sulfonamide]	257	4400	500	400
O=c1c2c([nH]n1-c1ccc(S(=O)(=O)NCc3ccco3)cn1)CSC2 [Compound 19, N-(furan-2-ylmethyl)-6-(3-oxo-4,6-dihydro-1H-thieno[3,4-c]pyrazol-2(3H)-yl)pyridine-3-sulfonamide]	238	5500	2400	2400
O=c1c2c([nH]n1-c1ccc(S(=O)(=O)NC3CCCC3)cn1)CSC2 [Compound 20, N-cyclopentyl-6-(3-oxo-4,6-dihydro-1H-thieno[3,4-c]pyrazol-2(3H)-yl)pyridine-3-sulfonamide]	> 260	3400	1000	900
CN(c1ccccn1)S(=O)(=O)c1ccc(-n2[nH]c3c(c2=O)CSC3)nc1 [Compound 21, N-methyl-6-(3-oxo-4,6-dihydro-1H-thieno[3,4-c]pyrazol-2(3H)-yl)-N-pyridin-2-ylpyridine-3-sulfonamide]	226	8700	1400	2400

These reach a lower EC50 (HIF1-alpha). Values come first.

melting point [°C]	EC50 (HIF1-alpha) [nM]	Compound	EC50 (EPO) [nM]	EC50 (VEGF) [nM]
164	3300	CCN(c1ccccc1)S(=O)(=O)c1ccc(-n2[nH]c3c(c2=O)COCC3)nc1 [Compound 25, N-ethyl-6-(3-oxo-1,4,6,7-tetrahydropyrano[4,3-c]pyrazol-2(3H)-yl)-N-phenylpyridine-3-sulfonamide]	2400	2500
198	3000	CCN(c1ccccc1)S(=O)(=O)c1ccc(-n2[nH]c3c(c2=O)SCCC3)nc1 [Compound 24, N-ethyl-6-(3-oxo-3,5,6,7-tetrahydrothiopyrano[3,2-c]pyrazol-2(1H)-yl)-N-phenylpyridine-3-sulfonamide]	500	500
118	2500	CCN(c1ccccc1)S(=O)(=O)c1ccc(-n2[nH]c3c(c2=O)CN(C(C)=O)CC3)nc1 [Compound 29, 6-(5-acetyl-3-oxo-1,3,4,5,6,7-hexahydro-2H-pyrazolo[4,3-c]pyridin-2-yl)-N-ethyl-N-phenylpyridine-3-sulfonamide]	2500	2600
192	1600	CCN(c1ccccc1)S(=O)(=O)c1ccc(-n2[nH]c3c(c2=O)CN(C(=O)OC(C)(C)C)CC3)nc1 [Compound 28, tert-butyl 2-[5-[ethyl(phenyl)sulfamoyl]pyridin-2-yl]-3-oxo-1,2,3,4,6,7-hexahydro-5H-pyrazolo[4,3-c]pyridine-5-carboxylate]	1000	1000
236	1500	O=c1c2c([nH]n1-c1ccc(S(=O)(=O)N3CCCCCC3)cn1)CSC2 [Compound 26, 2-[5-(azepan-1-ylsulfonyl)pyridin-2-yl]-1,2,4,6-tetrahydro-3H-thieno[3,4-c]pyrazol-3-one]	1000	1300
